One assay has as its system MAPK11. As to the kind of experiment: QRT-PCR of MAPK11 mRNA in control and FOXO4 KD IMR-32 cells. The format is cell-based, human. The conditions noted are these: 24 hours. Here is the method:
IMR-32 cells were cultured on 12-well plates for 24 hours and then incubated with FOXO4 siRNA lentiviruses (SC-29650V, Santa Cruz) or control siRNA lentiviruses (sc-108080, Santa Cruz) in the presence of Polybrene (5 μg/ml, Santa Cruz) for 24 hours according to the manufacturer's protocol. These lentiviral siRNA-transfected cells were amplified in normal media for 3 days and then incubated with puromycin for 9-14 days to obtain the stable Control KD (stably transfected with the control siRNAs) and FOXO4KD (stably transfected with Foxo4 siRNAs) cells. These control and Foxo4 KD cells were subjected to cell survival, mitochondrial potential and RNA analysis.
Human IMR-32 cells were seeded on gelatinized 6-well (6.5×10^5 cells/well) or 24-well (1.3×10^5 cells/well) plates. Cells were treated with control (0 ppb) or various compounds for 6 hours or 24 hours. Total RNA from these cells was isolated using Trizol (Invitrogen) according to the manufacturer's protocol, and then incubated with DNase I to remove any potential contaminated genomic DNA. Then RNA samples were subjected to real-time PCR analysis using the Applied-Bioscience's RT kit and predesigned Taqman probes (Invitrogen), as described previously (Lan et al EMBO J 2003). The mRNA levels of UCP1, UCP2, UCP3, SLC25A27 (UCP4), SLC25A14 (UCP5), PSEN1, Nicastrin, GSK3B, MAPK11-14, PPARG, APOE, RCAN1, RCAN1.1, G6PC, INSR, IGF1R and FOXO4 were measured. Three to six samples were analyzed in each treatment group. Data were normalized by Actin B (ACTB) or Glyceraldehyde Phosphate Dehydrogenase (GAPDH) mRNA levels in each sample and are presented as mean±SEM of 3-6 samples.
Normal control cells and FOXO4KD cells were incubated with two doses of Compound C for 24 hours, and subjected to QRT-PCR analysis of the MAPK11-14 genes. The relative mRNA expression of all four MAPK genes in normal control IMR-32 cells was assessed. […] Data in Compound C-treated control and FOXO4 KD cells were normalized by their levels in control and FOXO4KD cells, respectively. Mean±SEM of indicated number of samples in the bar graphs. […]

For another assay, the system named is PEN2. As to the kind of experiment: Western blot of PEN2 protein in IMR-32 cells. The format is cell-based, human. The conditions noted are these: 150 ppb, 24 hours. Here is the method: IMR-32 cells were seeded on 6-well plates and then treated with control and various compounds for 6 hours and 24 hours, as described above. After treatments, cells were rinsed with ice-cold PBS and lysed in ice-cold RIPA buffer containing complete proteinase and phosphatase inhibitors (Thermo-Fisher Scientific, Waltham, Mass.) on ice for 30 min Cell lysates were collected using a cell scraper and transfer pipette and then centrifuged at 12000×g for 30 min at 4° C. to remove the DNA pellet and obtain the protein extract. Protein levels in the supernatant of these cell lysates were determined using the Pierce Micro-BCA protein assay kit (Thermo Scientific-Piece Biotechnology, Rockford, Ill.) according to the manufacturer's protocol […]
Positive signals on the membrane blots were detected using Amersham's enhanced chemiluminescence (ECL) Western Blotting Prime Detection reagents (GE healthcare Lifescience, Pittsburgh, Pa.). Images of these luminescence signals on the membrane blots were captured using the LI-COR Odyssey Fc Image system (Lincoln, Nebr.). […] Protein band densities in the Western blots were determined using the Li—COR Image studio software or NIH ImageJ software, and then normalized by ACTB protein level in each sample. […]

In assay [1] the test system is Zic1-5, Foxp2, Drd1a, Tac1, Sez6, Penk, Dlx5, Rarb, Meis2, Ddx5, Gpr88, Pde10a, Akap5, Isl1. As to the kind of experiment: QRT-PCR of Zic genes and brain development/neuronal function genes in APP/PS1 mouse brains. The format is in vivo. The conditions noted are these: Compound C diet vs control diet. The procedure:
Male APPΔNLh/ΔNLh×PS1P246 L/246 L knock-in model mice of Alzheimer's disease (abbreviated APP/PS1) were genotyped using standard primers for human APP (Amyloid Precursor Protein) and human PS1 (PSEN1). These APP/PS1 mice starting at the age of 6 months, were fed either a control diet containing normal levels of selenium (0.3 ppm from plant and inorganic selenium salt sources) or an experimental diet containing Compound C (the control diet to which was added 1 ppm Se from Compound C) for 6 months. […]
Approximately 10 mg brain sample was homogenized with a Qiagen TissueRuptor (Qiagen, Valencia, Calif.) and total RNA was extracted using an RNeasy Mini kit (Qiagen), following the protocol recommended by the company. […] Integrity and purity of isolated RNA was assessed using a NanoDrop ND-1000 spectrophotometer (Thermo Scientific, Wilmington, Del.) and further confirmed with an Agilent 2100 Bioanalyzer System (Agilent Technologies, Santa Clara, Calif.).
RNA samples were subjected to real-time PCR analysis using the Applied-Bioscience's RT kit and predesigned Taqman probes (Invitrogen), as described previously (Lan et al EMBO J 2003). Three to six samples were analyzed in each group. […]

Structures are written as SMILES.

Consider `C[Se]C[C@H]1O[C@@H](n2cnc3c(N)ncnc32)C(O)C1O` (stereo in doubt) [Compound C, 5′-deoxy-5′-methylselenoadenosine], for which the “MAPK11 mRNA levels” value is given as “none of the mRNA levels of the four MAPK genes in FOXO4KD cells were significantly altered” with MAPK11 (FOXO4KD cells, 75 ppb and 150 ppb); “significant decrease” in the assay with MAPK11 (control KD cells, 75 ppb); “significantly decreased” in the assay on MAPK11 (control KD cells, 150 ppb). In the assay on PEN2, the PEN2 protein levels result is recorded as “but not PEN2 proteins, were reduced”. The “expression of Foxp2, Drd1a, Tac1, Sez6, Penk, Dlx5, Rarb, Meis, Ddx5, Gpr88, Pde10a, Isl1 and Akap5 by QRT-PCR” value in assay [1] is recorded as “significantly elevated”. In addition, in assay [1], the “expression of Zic1, Zic2, Zic3, Zic4 and Zic5 by QRT-PCR” value is reported as “significantly elevated”.
